ChEMBL document CHEMBL5715260, “Selectivity Literature for EUbOPEN Chemogenomic Library” (2024)

Assays:
[1] = target: T1, Hepatocyte nuclear factor 4-alpha (Homo sapiens) (UniProt P41235); test: Selectivity interaction (Reporter gene assay) EUB0001147a HNF4A; parameters: recommended concentration 1 uM
T1 sequence (whole entry): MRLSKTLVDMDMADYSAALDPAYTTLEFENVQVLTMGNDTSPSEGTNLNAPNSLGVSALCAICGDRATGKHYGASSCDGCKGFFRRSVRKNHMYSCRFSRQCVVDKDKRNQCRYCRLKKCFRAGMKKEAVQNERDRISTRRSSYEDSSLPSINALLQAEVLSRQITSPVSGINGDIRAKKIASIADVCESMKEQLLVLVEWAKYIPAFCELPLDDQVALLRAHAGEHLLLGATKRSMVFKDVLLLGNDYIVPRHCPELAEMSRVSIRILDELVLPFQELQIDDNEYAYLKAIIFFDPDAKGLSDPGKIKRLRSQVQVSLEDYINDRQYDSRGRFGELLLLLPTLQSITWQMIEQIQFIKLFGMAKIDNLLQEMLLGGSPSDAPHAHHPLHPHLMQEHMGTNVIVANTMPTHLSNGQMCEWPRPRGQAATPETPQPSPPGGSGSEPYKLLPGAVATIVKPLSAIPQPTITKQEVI

[2] = target: T2, Nuclear receptor subfamily 2 group C member 1 (Homo sapiens) (UniProt P13056); test: Selectivity interaction (Reporter gene assay) EUB0001147a NR2C1; parameters: recommended concentration 1 uM
T2 sequence (whole entry): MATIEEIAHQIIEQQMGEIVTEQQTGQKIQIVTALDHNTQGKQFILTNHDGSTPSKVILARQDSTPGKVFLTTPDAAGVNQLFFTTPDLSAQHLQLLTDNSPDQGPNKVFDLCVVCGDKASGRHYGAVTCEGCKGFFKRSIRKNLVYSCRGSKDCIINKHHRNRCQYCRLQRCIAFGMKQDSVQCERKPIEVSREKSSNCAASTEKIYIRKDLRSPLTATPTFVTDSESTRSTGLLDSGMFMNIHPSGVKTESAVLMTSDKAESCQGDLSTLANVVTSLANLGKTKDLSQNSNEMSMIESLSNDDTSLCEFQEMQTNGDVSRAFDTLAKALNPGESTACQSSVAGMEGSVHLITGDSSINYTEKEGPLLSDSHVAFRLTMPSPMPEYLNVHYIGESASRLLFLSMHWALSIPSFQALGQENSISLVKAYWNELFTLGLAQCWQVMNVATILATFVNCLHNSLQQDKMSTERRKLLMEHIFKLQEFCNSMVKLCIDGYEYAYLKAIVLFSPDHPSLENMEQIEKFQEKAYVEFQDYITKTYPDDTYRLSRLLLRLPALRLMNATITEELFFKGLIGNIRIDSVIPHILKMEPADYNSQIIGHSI

[3] = target: Nuclear receptor subfamily 2 group E member 1 (Homo sapiens) (UniProt Q9Y466); test: Selectivity interaction (Reporter gene assay) EUB0001147a NR2E1; parameters: recommended concentration 1 uM
[4] = target: Nuclear receptor subfamily 4immunitygroup A member 1 (Homo sapiens) (UniProt P22736); test: Selectivity interaction (Reporter gene assay) EUB0001147a NR4A1; parameters: recommended concentration 1 uM
[5] = target: Steroidogenic factor 1 (Homo sapiens) (UniProt Q13285); test: Selectivity interaction (Reporter gene assay) EUB0001147a NR5A1; parameters: recommended concentration 1 uM
[6] = target: T3, Alpha trans-inducing protein (Human alphaherpesvirus 1) (UniProt A0A5J6DW59); test: Selectivity interaction (Reporter gene assay) EUB0001147a UL48; parameters: recommended concentration 1 uM
[7] = target: T4, Retinoic acid receptor RXR-alpha (Homo sapiens) (UniProt P19793); test: Selectivity interaction (Reporter gene assay) EUB0001147a RXRA; parameters: recommended concentration 1 uM; settings: reference bexarotene 1 uM, Selectivity number of off-targets 0.0, Selectivity number of targets 1.0, Source Knowledge inhouse
T4 sequence (whole entry): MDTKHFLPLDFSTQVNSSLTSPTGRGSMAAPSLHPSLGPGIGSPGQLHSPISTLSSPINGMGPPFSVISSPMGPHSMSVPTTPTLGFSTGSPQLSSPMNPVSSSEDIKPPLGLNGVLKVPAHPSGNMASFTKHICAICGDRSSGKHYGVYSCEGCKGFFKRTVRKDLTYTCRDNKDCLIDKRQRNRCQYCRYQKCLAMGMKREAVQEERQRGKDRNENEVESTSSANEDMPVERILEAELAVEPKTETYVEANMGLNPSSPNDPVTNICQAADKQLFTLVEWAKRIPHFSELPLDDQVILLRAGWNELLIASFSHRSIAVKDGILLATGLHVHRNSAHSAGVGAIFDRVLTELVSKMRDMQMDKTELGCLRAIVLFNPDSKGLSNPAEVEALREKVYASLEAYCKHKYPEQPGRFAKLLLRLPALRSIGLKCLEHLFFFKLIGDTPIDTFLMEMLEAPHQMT

[8] = target: T1, Hepatocyte nuclear factor 4-alpha (Homo sapiens); test: Selectivity interaction (Reporter gene assay) EUB0001150a HNF4A; parameters: recommended concentration 10 uM
[9] = target: T2, Nuclear receptor subfamily 2 group C member 1 (Homo sapiens); test: Selectivity interaction (Reporter gene assay) EUB0001150a NR2C1; parameters: recommended concentration 10 uM
[10] = target: Nuclear receptor subfamily 2 group E member 1 (Homo sapiens) (UniProt Q9Y466); test: Selectivity interaction (Reporter gene assay) EUB0001150a NR2E1; parameters: recommended concentration 10 uM
[11] = target: Nuclear receptor subfamily 4immunitygroup A member 1 (Homo sapiens) (UniProt P22736); test: Selectivity interaction (Reporter gene assay) EUB0001150a NR4A1; parameters: recommended concentration 10 uM
[12] = target: Steroidogenic factor 1 (Homo sapiens) (UniProt Q13285); test: Selectivity interaction (Reporter gene assay) EUB0001150a NR5A1; parameters: recommended concentration 10 uM
[13] = target: T3, Alpha trans-inducing protein (Human alphaherpesvirus 1); test: Selectivity interaction (Reporter gene assay) EUB0001150a UL48; parameters: recommended concentration 10 uM
[14] = target: T4, Retinoic acid receptor RXR-alpha (Homo sapiens); test: Selectivity interaction (Reporter gene assay) EUB0001150a RXRA; parameters: recommended concentration 10 uM; settings: reference bexarotene 1 uM, Selectivity number of off-targets 0.0, Selectivity number of targets 1.0, Source Knowledge inhouse
[15] = target: T1, Hepatocyte nuclear factor 4-alpha (Homo sapiens); test: Selectivity interaction (Reporter gene assay) EUB0001148a HNF4A; parameters: recommended concentration 1 uM
[16] = target: T2, Nuclear receptor subfamily 2 group C member 1 (Homo sapiens); test: Selectivity interaction (Reporter gene assay) EUB0001148a NR2C1; parameters: recommended concentration 1 uM
[17] = target: Nuclear receptor subfamily 2 group E member 1 (Homo sapiens) (UniProt Q9Y466); test: Selectivity interaction (Reporter gene assay) EUB0001148a NR2E1; parameters: recommended concentration 1 uM
[18] = target: Nuclear receptor subfamily 4immunitygroup A member 1 (Homo sapiens) (UniProt P22736); test: Selectivity interaction (Reporter gene assay) EUB0001148a NR4A1; parameters: recommended concentration 1 uM
[19] = target: Steroidogenic factor 1 (Homo sapiens) (UniProt Q13285); test: Selectivity interaction (Reporter gene assay) EUB0001148a NR5A1; parameters: recommended concentration 1 uM
[20] = target: T3, Alpha trans-inducing protein (Human alphaherpesvirus 1); test: Selectivity interaction (Reporter gene assay) EUB0001148a UL48; parameters: recommended concentration 1 uM
[21] = target: T4, Retinoic acid receptor RXR-alpha (Homo sapiens); test: Selectivity interaction (Reporter gene assay) EUB0001148a RXRA; parameters: recommended concentration 1 uM
[22] = target: T1, Hepatocyte nuclear factor 4-alpha (Homo sapiens); test: Selectivity interaction (Reporter gene assay) EUB0001145aNa HNF4A; parameters: recommended concentration 1 uM
[23] = target: T2, Nuclear receptor subfamily 2 group C member 1 (Homo sapiens); test: Selectivity interaction (Reporter gene assay) EUB0001145aNa NR2C1; parameters: recommended concentration 1 uM
[24] = target: Nuclear receptor subfamily 2 group E member 1 (Homo sapiens) (UniProt Q9Y466); test: Selectivity interaction (Reporter gene assay) EUB0001145aNa NR2E1; parameters: recommended concentration 1 uM
[25] = target: Nuclear receptor subfamily 4immunitygroup A member 1 (Homo sapiens) (UniProt P22736); test: Selectivity interaction (Reporter gene assay) EUB0001145aNa NR4A1; parameters: recommended concentration 1 uM
[26] = target: Steroidogenic factor 1 (Homo sapiens) (UniProt Q13285); test: Selectivity interaction (Reporter gene assay) EUB0001145aNa NR5A1; parameters: recommended concentration 1 uM
[27] = target: T3, Alpha trans-inducing protein (Human alphaherpesvirus 1); test: Selectivity interaction (Reporter gene assay) EUB0001145aNa UL48; parameters: recommended concentration 1 uM
[28] = target: T4, Retinoic acid receptor RXR-alpha (Homo sapiens); test: Selectivity interaction (Reporter gene assay) EUB0001145aNa RXRA; parameters: recommended concentration 1 uM; settings: reference bexarotene 1 uM, Selectivity number of off-targets 0.0, Selectivity number of targets 1.0, Source Knowledge inhouse
[29] = target: Peroxisome proliferator-activated receptor alpha (Homo sapiens) (UniProt Q07869); test: Selectivity interaction (Reporter gene assay) EUB0001149a PPARA; parameters: recommended concentration 1 uM; settings: screened at recom. conc., Selectivity number of off-targets 1.0, Selectivity number of targets 19.0, Source Knowledge inhouse
[30] = target: T1, Hepatocyte nuclear factor 4-alpha (Homo sapiens); test: Selectivity interaction (Reporter gene assay) EUB0001149a HNF4A; parameters: recommended concentration 1 uM
[31] = target: T2, Nuclear receptor subfamily 2 group C member 1 (Homo sapiens); test: Selectivity interaction (Reporter gene assay) EUB0001149a NR2C1; parameters: recommended concentration 1 uM
[32] = target: Nuclear receptor subfamily 2 group E member 1 (Homo sapiens) (UniProt Q9Y466); test: Selectivity interaction (Reporter gene assay) EUB0001149a NR2E1; parameters: recommended concentration 1 uM
[33] = target: Nuclear receptor subfamily 4immunitygroup A member 1 (Homo sapiens) (UniProt P22736); test: Selectivity interaction (Reporter gene assay) EUB0001149a NR4A1; parameters: recommended concentration 1 uM
[34] = target: Steroidogenic factor 1 (Homo sapiens) (UniProt Q13285); test: Selectivity interaction (Reporter gene assay) EUB0001149a NR5A1; parameters: recommended concentration 1 uM
[35] = target: T3, Alpha trans-inducing protein (Human alphaherpesvirus 1); test: Selectivity interaction (Reporter gene assay) EUB0001149a UL48; parameters: recommended concentration 1 uM
[36] = target: T4, Retinoic acid receptor RXR-alpha (Homo sapiens); test: Selectivity interaction (Reporter gene assay) EUB0001149a RXRA; parameters: recommended concentration 1 uM; settings: reference bexarotene 1 uM, Selectivity number of off-targets 0.0, Selectivity number of targets 1.0, Source Knowledge inhouse

Chain of Nuclear receptor subfamily 2 group E member 1 (Homo sapiens) (Q9Y466 whole entry): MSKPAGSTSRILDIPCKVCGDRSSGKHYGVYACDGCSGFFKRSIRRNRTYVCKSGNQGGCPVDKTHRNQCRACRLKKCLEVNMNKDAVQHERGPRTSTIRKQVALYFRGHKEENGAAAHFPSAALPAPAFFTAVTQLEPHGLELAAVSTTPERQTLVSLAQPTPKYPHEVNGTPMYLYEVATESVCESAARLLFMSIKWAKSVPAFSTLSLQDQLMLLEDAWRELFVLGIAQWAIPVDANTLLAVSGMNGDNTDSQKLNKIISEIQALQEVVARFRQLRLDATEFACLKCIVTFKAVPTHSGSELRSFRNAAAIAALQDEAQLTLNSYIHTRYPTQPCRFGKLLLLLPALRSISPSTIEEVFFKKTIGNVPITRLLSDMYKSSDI
T3 sequence (A0A5J6DW59 as listed by the source): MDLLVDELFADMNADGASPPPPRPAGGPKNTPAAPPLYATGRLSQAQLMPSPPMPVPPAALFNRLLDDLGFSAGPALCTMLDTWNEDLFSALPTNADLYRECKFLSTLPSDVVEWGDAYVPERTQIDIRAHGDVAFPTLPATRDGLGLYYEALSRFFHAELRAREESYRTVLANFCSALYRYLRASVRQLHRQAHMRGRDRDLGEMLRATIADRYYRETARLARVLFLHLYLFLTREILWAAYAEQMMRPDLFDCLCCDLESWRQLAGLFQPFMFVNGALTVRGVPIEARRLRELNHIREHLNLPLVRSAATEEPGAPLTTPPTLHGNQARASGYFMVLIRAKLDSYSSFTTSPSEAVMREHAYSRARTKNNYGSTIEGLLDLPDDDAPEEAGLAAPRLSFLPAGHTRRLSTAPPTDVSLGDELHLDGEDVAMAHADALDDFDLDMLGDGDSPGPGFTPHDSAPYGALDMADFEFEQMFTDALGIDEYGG
Chain of Steroidogenic factor 1 (Homo sapiens) (Q13285 whole entry): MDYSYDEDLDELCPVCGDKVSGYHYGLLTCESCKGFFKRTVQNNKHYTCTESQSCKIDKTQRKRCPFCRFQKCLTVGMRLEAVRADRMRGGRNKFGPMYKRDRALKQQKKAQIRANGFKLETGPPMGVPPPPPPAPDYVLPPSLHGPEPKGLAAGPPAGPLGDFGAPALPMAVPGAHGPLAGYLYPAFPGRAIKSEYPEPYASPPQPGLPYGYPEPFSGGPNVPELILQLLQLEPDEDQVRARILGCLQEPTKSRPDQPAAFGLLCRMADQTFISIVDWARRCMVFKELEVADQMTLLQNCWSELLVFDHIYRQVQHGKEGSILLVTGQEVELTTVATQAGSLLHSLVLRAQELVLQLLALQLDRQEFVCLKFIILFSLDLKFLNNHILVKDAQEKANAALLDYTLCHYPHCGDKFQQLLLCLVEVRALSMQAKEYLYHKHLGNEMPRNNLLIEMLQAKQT
Chain of Nuclear receptor subfamily 4immunitygroup A member 1 (Homo sapiens) (P22736 whole entry): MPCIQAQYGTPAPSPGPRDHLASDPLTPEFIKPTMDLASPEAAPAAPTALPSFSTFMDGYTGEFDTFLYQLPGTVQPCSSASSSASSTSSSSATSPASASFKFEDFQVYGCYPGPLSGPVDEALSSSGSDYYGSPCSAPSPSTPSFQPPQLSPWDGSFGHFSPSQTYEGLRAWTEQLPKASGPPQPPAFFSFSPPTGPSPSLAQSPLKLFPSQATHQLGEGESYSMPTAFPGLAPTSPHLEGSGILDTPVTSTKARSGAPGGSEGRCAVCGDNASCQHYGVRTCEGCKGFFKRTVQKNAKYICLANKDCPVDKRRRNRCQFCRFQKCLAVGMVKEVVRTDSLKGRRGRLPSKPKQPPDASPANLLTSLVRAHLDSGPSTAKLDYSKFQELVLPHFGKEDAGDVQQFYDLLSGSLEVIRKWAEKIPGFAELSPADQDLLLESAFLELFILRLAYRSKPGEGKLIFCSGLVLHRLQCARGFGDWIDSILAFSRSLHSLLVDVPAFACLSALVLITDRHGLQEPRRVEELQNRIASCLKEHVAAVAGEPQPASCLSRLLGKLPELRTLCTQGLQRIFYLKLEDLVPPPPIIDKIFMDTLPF
Chain of Peroxisome proliferator-activated receptor alpha (Homo sapiens) (Q07869 whole entry): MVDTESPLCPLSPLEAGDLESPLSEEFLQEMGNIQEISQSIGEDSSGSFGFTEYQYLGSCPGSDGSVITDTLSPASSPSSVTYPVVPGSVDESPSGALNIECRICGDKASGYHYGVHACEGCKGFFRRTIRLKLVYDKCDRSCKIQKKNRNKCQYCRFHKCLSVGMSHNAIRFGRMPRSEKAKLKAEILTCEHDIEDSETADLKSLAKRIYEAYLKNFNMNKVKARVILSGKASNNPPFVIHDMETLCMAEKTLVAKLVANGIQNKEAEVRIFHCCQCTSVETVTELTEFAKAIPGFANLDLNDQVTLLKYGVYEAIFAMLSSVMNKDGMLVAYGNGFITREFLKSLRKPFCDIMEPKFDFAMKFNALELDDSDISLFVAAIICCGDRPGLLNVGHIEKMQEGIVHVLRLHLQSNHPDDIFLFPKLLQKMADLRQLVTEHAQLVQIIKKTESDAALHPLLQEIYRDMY

`CSc1ccc(C(=O)/C=C/c2cc(C)c(OC(C)(C)C(=O)O)c(C)c2)cc1` was tested. Which Remaining activity [1] did it give?
The Remaining activity was 0.852.

What about the Fold activation [2] of the same molecule?
Its Fold activation is 1.41.

What about the Fold activation [3] of the same molecule?
The Fold activation was 1.11.

What about the Fold activation [4] of the same molecule?
Its Fold activation is 1.25.

And the Remaining activity [5]?
The Remaining activity was 0.871.

And the P-value [6]?
Its P-value is 6.06e-07.

And the Relative activation [7]?
The Relative activation was 0.86%.

`COC(=O)c1sccc1S(=O)(=O)Nc1ccc(Nc2ccccc2)cc1OC` was tested. Which Remaining activity [8] did it give?
The Remaining activity was 0.51.

And the Remaining activity [9]?
The Remaining activity was 0.679.

What about the Remaining activity [10] of the same molecule?
Its Remaining activity is 0.608.

What about the Remaining activity [11] of the same molecule?
Its Remaining activity is 0.906.

And the Remaining activity [12]?
Its Remaining activity is 0.63.

What about the P-value [13] of the same molecule?
The P-value was 0.0012.

And the Relative activation [14]?
Its Relative activation is 0.476%.

Which results are given for `Cc1cc(SCc2sc(-c3ccc(C(F)(F)F)cc3)nc2C)ccc1OCC(=O)O`?
Fold activation [15]: 1.1; Fold activation [16]: 1.24; Fold activation [17]: 1.05; Fold activation [18]: 1.02; Fold activation [19]: 1.05; P-value [20]: 0.0001; Relative activation [21]: 0.766%

What does the source list for `CCO[C@H](COc1ccc(C(F)(F)F)cc1)CSc1ccc(OCC(=O)O)c(C)c1`?
Fold activation [22]: 1.17; Fold activation [23]: 1.29; Fold activation [24]: 1.14; Fold activation [25]: 1.09; Fold activation [26]: 1.13; P-value [27]: 0.0052; Relative activation [28]: 0.702%

`O=C(O)CCCc1cc2cc(Cl)ccc2n1S(=O)(=O)c1ccc2ncsc2c1` was tested. Which Fold activation [29] did it give?
Its Fold activation is 5.01.

And the Fold activation [30]?
Its Fold activation is 1.19.

And the Remaining activity [31]?
Its Remaining activity is 0.743.

And the Remaining activity [32]?
Its Remaining activity is 0.755.

And the Fold activation [33]?
The Fold activation was 1.09.

What about the Fold activation [34] of the same molecule?
The Fold activation was 1.16.

And the P-value [35]?
Its P-value is 0.0075.

And the Relative activation [36]?
Its Relative activation is 1.07%.
